In ChEMBL document CHEMBL1201862, “PubChem BioAssay data set” (2004):
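How tested: cells in 96-well plates exposed to compound for 48 hours at five concentrations. GI50 marks 50% less growth.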 Activity calls are given as the source filed them. Rule as the data show it: active = GI50 up to about 1.1 µM and inactive = higher.

Key:
Experiment in all cases: NCI-60 cell line screen, 48 h
DMS-114 = system: DMS-114
KM-20L2 = system: KM-20L2
LXFL 529 = system: LXFL 529
M19-MEL = system: M19-MEL
RXF 631 = system: RXF 631

Measured: GI50

CC(=O)OCCOCNC(=S)N/N=C/c1ccc2ccccc2n1
inactive: DMS-114 22.6 µM | KM-20L2 19.5 µM | LXFL 529 33.3 µM | M19-MEL 28.6 µM | RXF 631 55.6 µM

c1ccc2c(c1)N=C(c1ccc3ccccc3c1)CC(c1cccc3ccccc13)S2 (stereo not given)
inactive: DMS-114 24.3 µM | KM-20L2 43.5 µM | LXFL 529 24.2 µM | M19-MEL 29.9 µM | RXF 631 34.4 µM

OCC1OC(c2nc(C3=NCCCN3)cs2)C(O)C1O (stereo not given)
inactive: DMS-114 > 100 µM | KM-20L2 > 100 µM | LXFL 529 > 100 µM | M19-MEL > 100 µM | RXF 631 > 100 µM

COc1cc(OC)c2c(c1)C(=O)C(CC1(C)OCCCO1)=CC2=O
inactive: DMS-114 6.11 µM | KM-20L2 14.1 µM | LXFL 529 6.12 µM | M19-MEL 3.37 µM | RXF 631 22.3 µM

CCOC(=O)C1(Br)C(c2ccccc2)NC(=O)NC1(C)Br (stereo not given)
inactive: DMS-114 28.9 µM | KM-20L2 > 100 µM | LXFL 529 92.5 µM | M19-MEL 64.1 µM | RXF 631 46.6 µM

C=C1CCCC2OC(OC)CCC12 (stereo not given)
inactive: DMS-114 > 100 µM | KM-20L2 > 100 µM | LXFL 529 > 100 µM | M19-MEL > 100 µM | RXF 631 > 100 µM

COC(=O)/C([Se]c1c(C)cc(C)cc1C)=C(/[Se]c1c(C)cc(C)cc1C)C(=O)OC
inactive: DMS-114 > 99.3 µM | KM-20L2 > 100 µM | LXFL 529 > 100 µM | M19-MEL > 100 µM | RXF 631 > 100 µM

C[P+]1(c2ccccc2)CCCCC1
inactive: DMS-114 > 100 µM | KM-20L2 > 100 µM | LXFL 529 > 100 µM | M19-MEL > 100 µM | RXF 631 > 100 µM

COc1ccc(NC(=O)C2C(=O)N(c3ccc(OC)cc3)C(=O)/C2=N\N)cc1 (stereo not given)
inactive: DMS-114 > 100 µM | KM-20L2 > 100 µM | LXFL 529 > 100 µM | M19-MEL > 100 µM | RXF 631 > 100 µM
